The source made the active and inactive calls.
What was measured:
[1] = biological target: Dual specificity mitogen-activated protein kinase kinase 1 (Homo sapiens, UniProt Q02750)
[2] = biological target: T1, Mitogen-activated protein kinase kinase kinase 6 (Homo sapiens, UniProt O95382)
T1 sequence (O95382 whole entry): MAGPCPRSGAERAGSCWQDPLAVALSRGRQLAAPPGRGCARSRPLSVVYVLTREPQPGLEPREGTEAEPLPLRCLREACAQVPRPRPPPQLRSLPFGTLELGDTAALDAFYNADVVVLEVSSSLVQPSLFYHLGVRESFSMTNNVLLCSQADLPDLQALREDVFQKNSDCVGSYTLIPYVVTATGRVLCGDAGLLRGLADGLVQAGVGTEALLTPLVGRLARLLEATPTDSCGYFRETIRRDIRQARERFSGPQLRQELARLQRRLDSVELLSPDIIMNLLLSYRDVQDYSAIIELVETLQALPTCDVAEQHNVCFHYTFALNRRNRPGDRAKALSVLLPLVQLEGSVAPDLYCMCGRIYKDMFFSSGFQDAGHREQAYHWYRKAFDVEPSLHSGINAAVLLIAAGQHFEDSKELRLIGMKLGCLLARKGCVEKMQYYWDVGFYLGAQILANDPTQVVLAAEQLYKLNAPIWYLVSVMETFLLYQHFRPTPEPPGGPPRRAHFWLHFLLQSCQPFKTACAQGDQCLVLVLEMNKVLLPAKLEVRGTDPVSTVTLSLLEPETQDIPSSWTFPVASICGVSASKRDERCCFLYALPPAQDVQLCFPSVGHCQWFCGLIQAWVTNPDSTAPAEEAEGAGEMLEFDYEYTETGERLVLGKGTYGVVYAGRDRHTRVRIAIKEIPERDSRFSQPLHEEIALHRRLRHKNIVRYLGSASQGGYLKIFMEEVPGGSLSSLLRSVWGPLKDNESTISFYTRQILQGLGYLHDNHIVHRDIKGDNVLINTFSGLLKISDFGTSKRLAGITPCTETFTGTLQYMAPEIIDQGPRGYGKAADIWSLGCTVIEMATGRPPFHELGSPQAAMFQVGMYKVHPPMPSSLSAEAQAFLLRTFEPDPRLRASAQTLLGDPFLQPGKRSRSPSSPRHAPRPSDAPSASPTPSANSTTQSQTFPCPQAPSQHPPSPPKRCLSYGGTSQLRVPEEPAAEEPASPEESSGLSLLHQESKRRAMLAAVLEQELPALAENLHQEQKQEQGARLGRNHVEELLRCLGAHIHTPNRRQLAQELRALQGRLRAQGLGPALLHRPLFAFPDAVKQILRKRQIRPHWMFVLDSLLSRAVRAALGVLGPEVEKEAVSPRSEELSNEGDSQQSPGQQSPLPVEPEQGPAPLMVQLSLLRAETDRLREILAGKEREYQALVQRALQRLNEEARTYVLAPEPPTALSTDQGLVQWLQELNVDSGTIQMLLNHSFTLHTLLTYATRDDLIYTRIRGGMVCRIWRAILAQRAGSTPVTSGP

[3] = biological target: T2, Cytochrome c1, heme protein, mitochondrial (Homo sapiens, UniProt P08574)
T2 sequence (P08574 whole entry): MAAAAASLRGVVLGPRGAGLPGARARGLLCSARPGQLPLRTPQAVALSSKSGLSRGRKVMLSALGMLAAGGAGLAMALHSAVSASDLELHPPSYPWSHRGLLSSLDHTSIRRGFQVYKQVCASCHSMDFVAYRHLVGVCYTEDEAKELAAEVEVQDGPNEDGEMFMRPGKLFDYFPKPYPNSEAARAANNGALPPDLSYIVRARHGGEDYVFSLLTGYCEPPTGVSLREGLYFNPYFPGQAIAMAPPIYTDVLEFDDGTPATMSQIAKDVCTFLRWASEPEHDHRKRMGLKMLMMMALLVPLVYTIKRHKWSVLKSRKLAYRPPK

Ephrin type-B receptor 4 = biological target: T3, Ephrin type-B receptor 4 (Homo sapiens, UniProt P54760)
T3 sequence (P54760 whole entry): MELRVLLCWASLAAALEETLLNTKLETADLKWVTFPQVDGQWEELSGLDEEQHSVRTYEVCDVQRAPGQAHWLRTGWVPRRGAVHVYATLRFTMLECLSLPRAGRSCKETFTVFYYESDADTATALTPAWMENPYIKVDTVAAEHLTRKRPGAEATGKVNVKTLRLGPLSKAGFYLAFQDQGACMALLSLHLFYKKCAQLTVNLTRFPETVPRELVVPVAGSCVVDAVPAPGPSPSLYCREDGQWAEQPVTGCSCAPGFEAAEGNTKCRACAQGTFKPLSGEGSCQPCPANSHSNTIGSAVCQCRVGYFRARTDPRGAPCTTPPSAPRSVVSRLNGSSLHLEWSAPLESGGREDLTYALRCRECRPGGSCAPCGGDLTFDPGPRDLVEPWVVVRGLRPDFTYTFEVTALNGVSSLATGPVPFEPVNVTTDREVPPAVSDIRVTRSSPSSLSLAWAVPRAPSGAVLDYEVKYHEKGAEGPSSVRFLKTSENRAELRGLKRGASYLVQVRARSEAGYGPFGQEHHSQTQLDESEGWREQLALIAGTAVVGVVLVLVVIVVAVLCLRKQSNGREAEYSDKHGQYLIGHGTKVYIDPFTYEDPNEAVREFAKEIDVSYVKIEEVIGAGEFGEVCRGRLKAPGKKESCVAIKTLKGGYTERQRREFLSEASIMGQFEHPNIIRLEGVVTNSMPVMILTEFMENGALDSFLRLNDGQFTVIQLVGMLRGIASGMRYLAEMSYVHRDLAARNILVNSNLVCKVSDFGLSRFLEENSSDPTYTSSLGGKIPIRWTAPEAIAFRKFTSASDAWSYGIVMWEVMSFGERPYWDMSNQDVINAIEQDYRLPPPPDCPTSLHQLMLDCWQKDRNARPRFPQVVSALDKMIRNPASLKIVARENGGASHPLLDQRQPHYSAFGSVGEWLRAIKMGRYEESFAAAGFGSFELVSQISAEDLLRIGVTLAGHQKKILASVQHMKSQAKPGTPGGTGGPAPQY
Also: in the data inactive means no Kd found up to 30 µM.

Dual specificity mitogen-activated protein kinase kinase 1, sequence (Q02750 whole entry): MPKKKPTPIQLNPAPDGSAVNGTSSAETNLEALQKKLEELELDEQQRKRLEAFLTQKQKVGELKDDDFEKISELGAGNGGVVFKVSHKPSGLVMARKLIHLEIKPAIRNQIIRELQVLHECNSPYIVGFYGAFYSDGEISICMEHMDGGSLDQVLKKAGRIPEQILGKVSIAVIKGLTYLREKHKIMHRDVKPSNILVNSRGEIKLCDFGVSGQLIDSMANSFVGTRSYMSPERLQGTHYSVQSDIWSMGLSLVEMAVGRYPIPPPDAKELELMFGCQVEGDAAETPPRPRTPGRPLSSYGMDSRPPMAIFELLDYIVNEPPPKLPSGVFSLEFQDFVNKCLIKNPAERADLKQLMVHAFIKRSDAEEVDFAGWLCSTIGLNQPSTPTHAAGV

SMILES	Kd [1]	Kd [2]	Kd [3]	Kd (Ephrin type-B receptor 4)
CNC(=O)CN1CCC(Oc2cc3c(Nc4cccc(Cl)c4F)ncnc3cc2OC)CC1 [SAPITINIB]	> 30 µM (inactive)	> 30 µM (inactive)	> 30 µM (inactive)	0.556 µM (active)
COc1cc(CCc2cc(NC(=O)c3ccc(N4C[C@@H](C)N[C@@H](C)C4)cc3)n[nH]2)cc(OC)c1 [AZD-4547]	> 30 µM (inactive)	> 30 µM (inactive)	> 30 µM (inactive)	> 30 µM (inactive)
CNC(=O)c1ccc(C)c(-n2c(C)cc(OCc3ccc(F)cc3F)c(Br)c2=O)c1 [PH-797804]	> 30 µM (inactive)	> 30 µM (inactive)	> 30 µM (inactive)	> 30 µM (inactive)
CNC(=O)c1cc(Oc2ccc(NC(=O)Nc3ccc(Cl)c(C(F)(F)F)c3)c(F)c2)ccn1 [REGORAFENIB]	> 30 µM (inactive)	> 30 µM (inactive)	> 30 µM (inactive)	> 30 µM (inactive)
COCCNCc1ccc(-c2cc3nccc(Oc4ccc(NC(=S)NC(=O)Cc5ccc(F)cc5)cc4F)c3s2)nc1 [GLESATINIB]	> 30 µM (inactive)	> 30 µM (inactive)	> 30 µM (inactive)	> 30 µM (inactive)
CCN1CCN(Cc2ccc(-c3cc4c(N[C@H](C)c5ccccc5)ncnc4[nH]3)cc2)CC1 [AEE-788]	> 30 µM (inactive)	> 30 µM (inactive)	> 30 µM (inactive)	26.4 µM (active)
CN1CC[C@@H](c2c(O)cc(O)c3c(=O)cc(-c4ccccc4Cl)oc23)[C@@H]1CO	> 30 µM (inactive)	> 30 µM (inactive)	> 30 µM (inactive)	> 30 µM (inactive)
COc1cc(OC)c(/C=C/S(=O)(=O)Cc2ccc(OC)c(NCC(=O)O)c2)c(OC)c1 [RIGOSERTIB]	> 30 µM (inactive)	> 30 µM (inactive)	> 30 µM (inactive)	> 30 µM (inactive)
C1=C/COCc2cc(ccc2OCCN2CCCC2)Nc2nccc(n2)-c2cccc(c2)COC/1 [PACRITINIB]	> 30 µM (inactive)	> 30 µM (inactive)	> 30 µM (inactive)	> 30 µM (inactive)
CNC(=O)c1ccc(-c2cnc3ncc(Cc4ccc5ncccc5c4)n3n2)cc1F [CAPMATINIB]	> 30 µM (inactive)	> 30 µM (inactive)	> 30 µM (inactive)	> 30 µM (inactive)
C[C@@H](c1ccc2nccn2c1)n1nnc2ncc(-c3cnn(C)c3)nc21 [SAVOLITINIB]	> 30 µM (inactive)	> 30 µM (inactive)	> 30 µM (inactive)	> 30 µM (inactive)
CC[C@@H]1C(=O)N(C)c2cnc(Nc3ccc(C(=O)N[C@H]4CC[C@H](N5CCN(CC6CC6)CC5)CC4)cc3OC)nc2N1C(C)C [VOLASERTIB]	> 30 µM (inactive)	> 30 µM (inactive)	> 30 µM (inactive)	> 30 µM (inactive)
CN1CCC(COc2cnc(-c3cccc(Cn4nc(-c5cccc(C#N)c5)ccc4=O)c3)nc2)CC1 [TEPOTINIB]	> 30 µM (inactive)	> 30 µM (inactive)	> 30 µM (inactive)	> 30 µM (inactive)
Cc1cc2c(F)c(Oc3ncnn4cc(OC[C@@H](C)OC(=O)[C@H](C)N)c(C)c34)ccc2[nH]1 [BRIVANIB ALANINATE]	> 30 µM (inactive)	> 30 µM (inactive)	> 30 µM (inactive)	> 30 µM (inactive)
CN1N=C(N)c2cn([C@@H]3O[C@H](COP(=O)(O)O)[C@@H](O)[C@H]3O)c3ncnc1c23 [TRICIRIBINE PHOSPHATE]	> 30 µM (inactive)	> 30 µM (inactive)	> 30 µM (inactive)	> 30 µM (inactive)
Cc1cc([C@@H](C)Nc2ccccc2C(=O)O)c2nc(N3CCOCC3)cc(=O)n2c1 [AZD-6482]	> 30 µM (inactive)	> 30 µM (inactive)	> 30 µM (inactive)	> 30 µM (inactive)
CCS(=O)(=O)N1CC(CC#N)(n2cc(-c3ncnc4[nH]ccc34)cn2)C1 [BARICITINIB]	> 30 µM (inactive)	> 30 µM (inactive)	> 30 µM (inactive)	> 30 µM (inactive)
Cc1cc(-c2cc(O)ccc2Cl)cc2nnc(Nc3ccc(OCCN4CCCC4)cc3)nc12	> 30 µM (inactive)	> 30 µM (inactive)	> 30 µM (inactive)	0.0009 µM (active)
Cc1nc(N)sc1-c1ccnc(Nc2ccc(N3CCOCC3)cc2)n1 [CYC-116]	> 30 µM (inactive)	> 30 µM (inactive)	> 30 µM (inactive)	4.61 µM (active)
Cc1c(F)cc(C(=O)NC2CC2)cc1-c1ccc(C(=O)NCC(C)(C)C)cn1 [LOSMAPIMOD]	> 30 µM (inactive)	> 30 µM (inactive)	> 30 µM (inactive)	> 30 µM (inactive)
O=C(c1ccc(F)c(F)c1Nc1ccc(I)cc1F)N1CC(O)([C@@H]2CCCCN2)C1 [COBIMETINIB]	0.309 µM (active)	> 30 µM (inactive)	> 30 µM (inactive)	> 30 µM (inactive)
COc1cc(N2CCC(N3CCN(C)CC3)CC2)ccc1Nc1ncnc(Nc2ccccc2S(=O)(=O)C(C)C)n1 [ASP-3026]	> 30 µM (inactive)	> 30 µM (inactive)	> 30 µM (inactive)	> 30 µM (inactive)
O=c1sn(-c2cccc3ccccc23)c(=O)n1Cc1ccccc1 [TIDEGLUSIB]	> 30 µM (inactive)	> 30 µM (inactive)	> 30 µM (inactive)	> 30 µM (inactive)
C[C@@H](Nc1cc(F)cc(F)c1)c1cc(C(=O)N(C)C)cc2c(=O)cc(N3CCOCC3)oc12 [AZD-8186]	> 30 µM (inactive)	> 30 µM (inactive)	> 30 µM (inactive)	> 30 µM (inactive)
Cc1ccc(S(=O)(=O)Nc2nc3ccccc3nc2Nc2ccc3nsnc3c2)cc1	> 30 µM (inactive)	> 30 µM (inactive)	> 30 µM (inactive)	> 30 µM (inactive)
CN1CCC(CNc2ccc3ncc(-c4cccc(OC(F)(F)F)c4)n3n2)CC1 [SGI-1776]	> 30 µM (inactive)	> 30 µM (inactive)	> 30 µM (inactive)	> 30 µM (inactive)
CCCS(=O)(=O)Nc1ccc(F)c(C(=O)c2c[nH]c3ncc(-c4ccc(Cl)cc4)cc23)c1F [VEMURAFENIB]	> 30 µM (inactive)	> 30 µM (inactive)	> 30 µM (inactive)	> 30 µM (inactive)
